According to ChEMBL document CHEMBL4665663, “Anti-atherosclerosis effect of HS donors based on nicotinic acid and chlorfibrate structures” (Bioorg Med Chem, 2019):
Active and inactive are the calls of the source. The rule behind the calls is not given here.

Key:
[1] = Prodrug release in phosphate buffer containing L-cysteine assessed as H2S release by measuring H2S releasing half-life at 60 uM by methylene blue method; format: ADME
[2] = system: H9c2; assay: Cytotoxicity against rat H9c2 cells assessed as reduction in cell viability after 48 hrs by MTT assay; format: cell-based; details: H9c2, 48 h
[3] = system: HUVEC; assay: Cytotoxicity against human HUVEC cells assessed as reduction in cell viability after 48 hrs by MTT assay; format: cell-based
[4] = system: RAW264.7; assay: Cytotoxicity against mouse RAW264.7 cells assessed as reduction in cell viability after 48 hrs by MTT assay; format: cell-based; details: RAW264.7, 48 h
[5] = system: WI-38; assay: Cytotoxicity against human WI38 cells assessed as reduction in cell viability after 48 hrs by MTT assay; format: cell-based; details: WI-38, 48 h
[6] = system: HUVEC; assay: Cytoprotective activity against ox-LDL induced cell damage in human HUVEC cells assessed as increase in cell viability at 50 to 100 uM preincubated for 10 mins followed by ox-LDL stimulation measured after 24 hrs by MTT assay; format: functional, cell-based; details: dose microM 50-100, time 10.0 min
[7] = system: HUVEC; assay: Cytotoxicity against human HUVEC cells assessed as reduction in cell viability at 10 to 100 uM by MTT assay; format: cell-based; details: dose 10-100 µM
[8] = system: HUVEC; assay: Cytoprotective activity against ox-LDL induced cell damage in human HUVEC cells assessed as increase in cell viability at 50 uM preincubated for 10 mins followed by ox-LDL stimulation measured after 24 hrs by MTT assay; format: functional, cell-based
[9] = system: HUVEC; assay: Cytoprotective activity against ox-LDL induced cell damage in human HUVEC cells assessed as cell viability at 100 uM preincubated for 10 mins followed by ox-LDL stimulation measured after 24 hrs by MTT assay (reference value: 73.1%); format: functional; details: read-out: Activity
[10] = system: HUVEC; assay: Anti-atherosclerotic activity against ox-LDL induced cell damage in human HUVEC cells assessed as reduction in nuclear pyknosis and apoptotic bodies formation preincubated for 10 mins followed by ox-LDL stimulation and measured after 24 hrs by Hoechst 33342 staining based fluorescence microscopy; format: functional
[11] = system: HUVEC; assay: Anti-atherosclerotic activity against ox-LDL induced cell damage in human HUVEC cells assessed as reduction in late apoptotic and death cells preincubated for 10 mins followed by ox-LDL stimulation and measured after 24 hrs by PI staining based fluorescence microscopic analysis; format: functional
[12] = system: HUVEC; assay: Anti-atherosclerotic activity against ox-LDL induced cell damage in human HUVEC cells assessed as reduction in early apoptotic cells by measuring increase in mitochondrial membrane potential preincubated for 10 mins followed by ox-LDL stimulation and measured after 24 hrs by JC-1 staining based fluorescence microscopic analysis; format: functional
[13] = system: RAW264.7; assay: Antioxidant activity in mouse RAW264.7 cells assessed as reduction in ox-LDL-induced oxidative stress by measuring increase in SOD level at 50 uM preincubated for 10 mins followed by ox-LDL stimulation and measured after 24 hrs relative to control; format: functional; design: scale not given: the % may be the effect or the level left
[14] = system: HUVEC; assay: Anti-atherosclerotic activity against ox-LDL induced apoptosis in human HUVEC cells assessed as reduction in Bax expression at 10 to 50 uM preincubated for 10 mins followed by ox-LDL stimulation and measured after 24 hrs by ELISA; format: functional, cell-based; details: dose microM 10-50, time 10.0 min
[15] = system: HUVEC; assay: Anti-atherosclerotic activity against ox-LDL induced apoptosis in human HUVEC cells assessed as reduction in caspase-3 expression at 10 to 50 uM preincubated for 10 mins followed by ox-LDL stimulation and measured after 24 hrs by ELISA; format: functional, cell-based; details: dose microM 10-50, time 10.0 min
[16] = system: HUVEC; assay: Anti-atherosclerotic activity against ox-LDL induced apoptosis in human HUVEC cells assessed as increase in bcl-2 expression at 50 uM preincubated for 10 mins followed by ox-LDL stimulation and measured after 24 hrs by ELISA; format: functional
[17] = system: RAW264.7; assay: Inhibition of macrophage foam cell formation in mouse RAW264.7 cells assessed as reduction in ox-LDL induced red lipid droplets formation preincubated for 10 mins followed by ox-LDL stimulation and measured after 24 hrs by oil red O staining based inverted microscopy analysis; format: functional; details: dose microM 10-50, time 10.0 min
[18] = system: RAW264.7; assay: Inhibition of macrophage foam cell formation in mouse RAW264.7 cells assessed as reduction in ox-LDL induced red lipid droplets formation at 50 uM preincubated for 10 mins followed by ox-LDL stimulation and measured after 24 hrs by oil red O staining based inverted microscopy analysis; format: functional
[19] = system: RAW264.7; assay: Anti-atherosclerotic activity in mouse RAW264.7 cells assessed as decrease in ox-LDL induced intracellular lipid accumulation by measuring reduction in CE/TC ratio at 50 uM preincubated for 10 mins followed by ox-LDL stimulation and measured after 24 hrs by colorimetric method relative to control; format: functional; details: RAW264.7, 10 min
[20] = system: RAW264.7; assay: Antioxidant activity in mouse RAW264.7 cells assessed as reduction in ox-LDL induced ROS accumulation at 10 to 50 uM preincubated for 10 mins followed by ox-LDL stimulation and measured after 24 hrs by DCFH-DA staining based fluorescence microscopic analysis; format: functional, cell-based; details: dose microM 10-50, time 10.0 min
[21] = system: RAW264.7; assay: Antioxidant activity in mouse RAW264.7 cells assessed as reduction in ox-LDL induced oxidative stress by measuring decrease in MDA level at 50 uM preincubated for 10 mins followed by ox-LDL stimulation and measured after 24 hrs relative to control; format: functional; details: RAW264.7, 10 min
[22] = system: RAW264.7; assay: Anti-inflammatory activity in mouse RAW264.7 cells assessed as decrease in ox-LDL induced inflammatory reaction by measuring decrease in TNF-alpha production preincubated for 10 mins followed by ox-LDL stimulation and measured after 24 hrs; format: functional, cell-based; details: dose microM 10-50, time 10.0 min
[23] = system: RAW264.7; assay: Anti-inflammatory activity in mouse RAW264.7 cells assessed as decrease in ox-LDL induced inflammatory reaction by measuring increase in IL-10 production preincubated for 10 mins followed by ox-LDL stimulation and measured after 24 hrs; format: functional, cell-based; details: dose microM 10-50, time 10.0 min
[24] = system: RAW264.7; assay: Anti-atherosclerotic activity in mouse RAW264.7 cells assessed as decrease in ox-LDL induced PI3K protein expression at 10 to 50 uM preincubated for 10 mins followed by ox-LDL stimulation and measured after 24 hrs by Western blot analysis; format: functional, cell-based; details: dose microM 10-50, time 10.0 min
[25] = system: RAW264.7; assay: Anti-atherosclerotic activity in mouse RAW264.7 cells assessed as decrease in ox-LDL induced AKT protein expression at 10 to 50 uM preincubated for 10 mins followed by ox-LDL stimulation and measured after 24 hrs by Western blot analysis; format: functional, cell-based; details: dose microM 10-50, time 10.0 min
[26] = system: RAW264.7; assay: Anti-atherosclerotic activity in mouse RAW264.7 cells assessed as decrease in ox-LDL induced NFkappaB protein expression at 10 to 50 uM preincubated for 10 mins followed by ox-LDL stimulation and measured after 24 hrs by Western blot analysis; format: functional, cell-based; details: dose microM 10-50, time 10.0 min
[27] = system: RAW264.7; assay: Anti-atherosclerotic activity in mouse RAW264.7 cells assessed as decrease in ox-LDL induced intracellular lipid accumulation by measuring reduction in total cholesterol level at 10 to 50 uM preincubated for 10 mins followed by ox-LDL stimulation and measured after 24 hrs by colorimetric method; format: functional, cell-based; details: dose microM 10-50, time 10.0 min
[28] = system: RAW264.7; assay: Anti-atherosclerotic activity in mouse RAW264.7 cells assessed as decrease in ox-LDL induced intracellular lipid accumulation by measuring reduction in free cholesterol level at 10 to 50 uM preincubated for 10 mins followed by ox-LDL stimulation and measured after 24 hrs by colorimetric method; format: functional, cell-based; details: dose microM 10-50, time 10.0 min
[29] = system: RAW264.7; assay: Antioxidant activity in mouse RAW264.7 cells assessed as reduction in ox-LDL induced ROS accumulation at 10 uM preincubated for 10 mins followed by ox-LDL stimulation and measured after 24 hrs by DCFH-DA staining based fluorescence microscopic analysis; format: functional, cell-based
[30] = system: RAW264.7; assay: Antioxidant activity in mouse RAW264.7 cells assessed as reduction in ox-LDL induced oxidative stress by measuring decrease in MDA level at 10 to 50 uM preincubated for 10 mins followed by ox-LDL stimulation and measured after 24 hrs; format: functional, cell-based; details: dose microM 10-50, time 10.0 min
[31] = system: RAW264.7; assay: Antioxidant activity in mouse RAW264.7 cells assessed as reduction in ox-LDL induced oxidative stress by measuring increase in SOD level at 10 to 50 uM preincubated for 10 mins followed by ox-LDL stimulation and measured after 24 hrs; format: functional, cell-based; details: dose microM 10-50, time 10.0 min
[32] = system: RAW264.7; assay: Anti-inflammatory activity in mouse RAW264.7 cells assessed as decrease in ox-LDL induced inflammatory reaction by measuring decrease in TNF-alpha production at 10 to 50 uM preincubated for 10 mins followed by ox-LDL stimulation and measured after 24 hrs; format: functional, cell-based; details: dose microM 10-50, time 10.0 min
[33] = system: RAW264.7; assay: Anti-inflammatory activity in mouse RAW264.7 cells assessed as decrease in ox-LDL induced inflammatory reaction by measuring increase in IL-10 production at 10 to 50 uM preincubated for 10 mins followed by ox-LDL stimulation and measured after 24 hrs; format: functional, cell-based; details: dose microM 10-50, time 10.0 min
[34] = system: RAW264.7; assay: Inhibition of macrophage foam cell formation in mouse RAW264.7 cells assessed as reduction in ox-LDL induced red lipid droplets formation at 10 uM preincubated for 10 mins followed by ox-LDL stimulation and measured after 24 hrs by oil red O staining based inverted microscopy analysis; format: functional

`CC(C)(Oc1ccc(Cl)cc1)C(=O)Oc1ccc(-c2cc(=S)ss2)cc1` showed a t1/2 [1] of 4.2 min, an IC50 [2] of 675 µM and an IC50 [3] of 616 µM. It also gave an IC50 [4] greater than 800 µM and an IC50 [5] of 764 µM.
With `CC(C)(Oc1ccc(Cl)cc1)C(=O)NCCOC(=S)Nc1ccc([N+](=O)[O-])cc1Cl` the Activity [6] was “Active”, the Activity [7] was “Non-Toxic” and the t1/2 [1] was 1.7 min. For the same molecule, the IC50 [2] was greater than 800 µM, the IC50 [3] was 729 µM and the IC50 [4] was greater than 800 µM. It also gave an IC50 [5] greater than 800 µM.
For `O=C(CCCCC1CCSS1)OCCCOC(=O)c1cccnc1` (centres undefined), the Activity [8] was “Active”, the Activity [7] was “Non-Toxic” and the t1/2 [1] was 15.3 min. The IC50 [2] was greater than 800 µM, the IC50 [3] was greater than 800 µM and the IC50 [4] was greater than 800 µM. For the same molecule, the IC50 [5] was greater than 800 µM, the viability at 100 µM [9] was 85.9% and the Activity [10] was “Active”. For the same molecule, the Activity [11] was “Active”, the Activity [12] was “Active” and the Activity [13] was 48.3%. For the same molecule, the Activity [14] was “Active”, the Activity [15] was “Active” and the Activity [16] was 32.7%. The inhibition [17] was “Dose-dependent effect”, the inhibition [18] was “Active” and the inhibition at 50 µM [19] was 32.4%. The Activity [20] was “Active”, the inhibition at 50 µM [21] was 47% and the Activity [22] was “Dose-dependent effect”. The Activity [23] was “Dose-dependent effect”, the Activity [24] was “Active” and the Activity [25] was “Active”. The Activity [26] was “Active”, the Activity [27] was “Active” and the Activity [28] was “Active”.
`Cc1cnc(C(=O)OCCCOC(=O)CCCCC2CCSS2)c[n+]1[O-]` (centres undefined) gave a t1/2 [1] of 19.8 min, an IC50 [2] greater than 800 µM and an IC50 [3] greater than 800 µM. The IC50 [4] was greater than 800 µM and the IC50 [5] was greater than 800 µM.
With `Cc1cnc(C(=O)Oc2ccc(C(N)=S)cc2)c[n+]1[O-]` the t1/2 [1] was 3.9 min, the IC50 [2] was 780 µM and the IC50 [3] was 714 µM. It also gave an IC50 [4] greater than 800 µM and an IC50 [5] greater than 800 µM.
With `CC(C)(Oc1ccc(Cl)cc1)C(=O)NCCOC(=S)Nc1ccccc1` the t1/2 [1] was 1.4 min, the IC50 [2] was greater than 800 µM and the IC50 [3] was 791 µM. For the same molecule, the IC50 [4] was greater than 800 µM and the IC50 [5] was greater than 800 µM.
Molecule `Cc1ccc(NC(=S)OCCNC(=O)C(C)(C)Oc2ccc(Cl)cc2)cc1` has a t1/2 [1] of 1 min, an IC50 [2] of 771 µM and an IC50 [3] of 661 µM. The IC50 [4] was greater than 800 µM and the IC50 [5] was greater than 800 µM.
For `O=C(NCCOC(=S)Nc1ccc([N+](=O)[O-])cc1Cl)c1cccnc1`, the Activity [6] was “Active”, the Activity [7] was “Non-Toxic” and the t1/2 [1] was 2.1 min. It also gave an IC50 [2] greater than 800 µM, an IC50 [3] of 701 µM and an IC50 [4] greater than 800 µM. For the same molecule, the IC50 [5] was greater than 800 µM.
For `CCOC(=O)C(C)(C)Oc1ccc(Cl)cc1`, the Activity [27] was “Active”, the Activity [28] was “Active” and the Activity [29] was “inactive”. For the same molecule, the Activity [30] was “inactive”, the Activity [31] was “inactive” and the Activity [32] was “Active”. The Activity [33] was “Active” and the inhibition [34] was “Active”.
`NC(=S)c1ccc(OC(=O)c2cccnc2)cc1` gave a t1/2 [1] of 2.1 min, an IC50 [2] of 754 µM and an IC50 [3] of 683 µM. It also gave an IC50 [4] greater than 800 µM and an IC50 [5] greater than 800 µM.
